Laboratory results published in patent publication US8822508B2, “2-oxo-1-pyrrolidinyl imidazothiadiazole derivatives” (UCB Pharma, S.A., priority 2009, dated 2014).

Legend:
[1] = Gower A. J. et al., Eur. J. Pharmacol. (1992), 222, 193-203; cited from earlier work

Compound | melting point [°C] | activity in the treatment of epilepsy (seizure control) [1]
COCc1nn2c(CN3CC(CCC(F)(F)F)CC3=O)c(Cl)nc2s1 (single isomer, unassigned; (+)) [Compound 27, (+)-1-{[6-chloro-2-(methoxymethyl)imidazo[2,1-b][1,3,4]thiadiazol-5-yl]methyl}-4-(3,3,3-trifluoropropyl)pyrrolidin-2-one] | 60 | 
COCc1nn2c(CN3CC(CC(F)(F)Cl)CC3=O)c(C(F)F)nc2s1 (single isomer, unassigned; (+)) [Compound 23, (+)-4-(2-chloro-2,2-difluoroethyl)-1-{[6-(difluoromethyl)-2-(methoxymethyl)imidazo[2,1-b][1,3,4]thiadiazol-5-yl]methyl}pyrrolidin-2-one] | 73 | 
O=C1C[C@H](CC(F)(F)Cl)CN1Cc1c(C(F)(F)F)nc2sc(CO)nn12 [Compound 8, (4R)-4-(2-chloro-2,2-difluoroethyl)-1-{[2-(hydroxymethyl)-6-(trifluoromethyl)imidazo[2,1-b][1,3,4]thiadiazol-5-yl]methyl}pyrrolidin-2-one] | 154 | 
COCc1nn2c(CN3CC(CC(C)(F)F)CC3=O)c(C(F)(F)F)nc2s1 (single isomer, unassigned; (-)) [Compound 3, (−)-4-(2,2-difluoropropyl)-1-{[2-(methoxymethyl)-6-(trifluoromethyl)imidazo[2,1-b][1,3,4]thiadiazol-5-yl]methyl}pyrrolidin-2-one] | 67 | 
COCc1nn2c(CN3C[C@@H](CC(F)(F)F)CC3=O)c(C(F)(F)F)nc2s1 [Compound 11, (4R)-1-{[2-(methoxymethyl)-6-(trifluoromethyl)imidazo[2,1-b][1,3,4]thiadiazol-5-yl]methyl}-4-(2,2,2-trifluoroethyl)pyrrolidin-2-one] | 72 | 
COCc1nn2c(CN3C[C@H](CC(F)(F)F)CC3=O)c(C(F)(F)F)nc2s1 [Compound 12, (4S)-1-{[2-(methoxymethyl)-6-(trifluoromethyl)imidazo[2,1-b][1,3,4]thiadiazol-5-yl]methyl}-4-(2,2,2-trifluoroethyl)pyrrolidin-2-one] | 73 | 
COCc1nn2c(CN3CC(CC(C)(F)F)CC3=O)c(C(F)(F)F)nc2s1 (single isomer, unassigned; (+)) [Compound 2, (+)-4-(2,2-difluoropropyl)-1-{[2-(methoxymethyl)-6-(trifluoromethyl)imidazo[2,1-b][1,3,4]thiadiazol-5-yl]methyl}pyrrolidin-2-one] | 70 | 
CC[C@H](C(N)=O)N1CCCC1=O [(R)-α-ethyl-2-oxo-1-pyrrolidine acetamide] |  | completely lacks activity
